Laboratory results as given in paper PMC8206213, “An L-2-hydroxyglutarate biosensor based on specific transcriptional regulator LhgR” (Nature Communications, 2021).
“And” between values parts separate entries of the source, which are not always exact repeats. Equal entries are not always repeated.

Columns and labels:
Type in all cases: binding, Pseudomonas putida W619
LHGFR0N7C [1] = experiment: Influence of other compounds on the response of purified LHGFR0N7C to L-2-HG; settings: Suppl. Fig. 9b, three replicates
Experimental: (§1) Purified L-2-HG biosensors and different compounds were diluted by 50 mM Tris-HCl buffer (pH 7.4), mixed together in a black 96-well plate at a volume ratio of 3:1, and the fluorescence intensities were measured using an EnSight microplate reader (PerkinElmer, USA) with excitation at 430 nm, emission at 485 nm (mTFP) and 528 nm (Venus). […] The [L-2-HG], Kd, and p refer to the L-2-HG concentration, apparent dissociation constant, and Hill slope, respectively. Emission spectra were recorded at 430 nm excitation, in steps of 2 nm. Excitation spectra were recorded using emission at 550 nm, excitation from 380 to 535 nm in steps of 2 nm.

LHGFR0N3C [2] = experiment: Influence of other compounds on the response of purified LHGFR0N3C to L-2-HG; settings: Suppl. Fig. 9a, three replicates
Experimental: as §1

LHGFR0N3C [3] = experiment: Specificity of purified LHGFR0N3C, emission ratio with 240 μM compounds; settings: 240 μM compound
Experimental: as §1

LHGFR0N7C [4] = experiment: Specificity of purified LHGFR0N7C, emission ratio with 240 μM compounds; settings: 240 μM compound
Experimental: as §1

[5] = L-2-HG alone or with the compound

Structure (SMILES)	Emission ratio (LHGFR0N7C [1]; 50 μM ATP)	Emission ratio (LHGFR0N7C [1]; 100 μM ATP)	Emission ratio (LHGFR0N7C [1]; 500 μM ATP)	Emission ratio (LHGFR0N7C [1]; 1 mM ATP)	Emission ratio (LHGFR0N7C [1]; 5 mM ATP)	Emission ratio (LHGFR0N3C [2]; 50 μM ATP)	Emission ratio (LHGFR0N3C [2]; 100 μM ATP)	Emission ratio (LHGFR0N3C [2]; 500 μM ATP)	Emission ratio (LHGFR0N3C [2]; 1 mM ATP)	Emission ratio (LHGFR0N3C [2]; 5 mM ATP)	Emission ratio (LHGFR0N7C [1]; [5])	Emission ratio (LHGFR0N3C [3])	Induction of emission ratio changes (LHGFR0N3C [3])	Emission ratio (LHGFR0N7C [4])	Induction of emission ratio changes (LHGFR0N7C [4])	Emission ratio (LHGFR0N3C [2]; [5])
Nc1ncnc2c1ncn2[C@@H]1O[C@H](COP(=O)(O)OP(=O)(O)OP(=O)(O)O)[C@@H](O)[C@H]1O [ATP]	2.546 and 2.581 and 2.59	2.59 and 2.574 and 2.618	2.6191 and 2.584 and 2.589	2.6148 and 2.611 (2×)	2.6574 and 2.624 and 2.63	2.0763 and 2.03 and 2.053	2.022 and 2.017 and 2.045	2.063 (2×) and 2.059	2.142 and 2.082 and 2.1362	2.1045 and 2.1074 and 2.154						
O=C(O)/C=C(/CC(=O)O)C(=O)O [Cis-aconitate, cis-aconitate]											2.594 and 2.591 and 2.61	1.358 and 1.383 and 1.3936	None	1.7035 and 1.722 and 1.738	None	2.04 and 2.059 and 2.056
O=C(O)CC(O)(CC(=O)O)C(=O)O [Citrate]											2.561 and 2.588 and 2.595	1.344 and 1.397 and 1.391	None	1.665 and 1.672 and 1.697	None	1.986 and 2.033 and 2.109
C[C@@H](O)C(=O)O [D-Lactate, D-lactate]											2.595 and 2.609 and 2.633	1.395	None	1.7153 and 1.693 and 1.686	None	2.084 and 2.089 and 2.108
O=C(O)/C=C/C(=O)O [Fumarate]											2.613 and 2.5931 and 2.59	1.378 and 1.374 and 1.399	None	1.695 and 1.71 and 1.714	None	1.9538 and 2.042 and 2.049
C[C@H](O)C(=O)O [L-Lactate, L-lactate]											2.6205 and 2.619 and 2.644	1.397 and 1.412 and 1.41	None	1.748 and 1.739 and 1.741	None	2.088 and 2.079 and 2.04
O=C(O)C[C@H](O)C(=O)O [L-Malate, L-malate]											2.598 and 2.599 and 2.61	1.354 and 1.373 (2×)	None	1.654 and 1.687 and 1.723	None	2.062 and 2.063 and 2.08
O=C(O)CC(=O)C(=O)O [Oxaloacetate]											2.5106 and 2.58 and 2.608	1.3879 and 1.4027 and 1.379	None	1.671 (2×) and 1.68	None	2.024 and 2.069 and 2.088
CC(=O)C(=O)O [Pyruvate, pyruvate]											2.56 and 2.596 and 2.595	1.366 and 1.361 and 1.386	None	1.667 and 1.6731 and 1.709	None	2.0125 and 2.04 and 2.083
